Results as given in US20230014918A1, “COMPOSITIONS FOR USE AS ANTIOXIDANT” (priority 2019, published 2023).
“Also recorded” adds a separate entry of the source. Values belong to the compound of their own block, whether it stands above or below them.

Legend:
mice mesenteric arteries [1] = assay: Vascular reactivity of phenylephrine-precontracted mice mesenteric arteries; format: cell-based; settings: for direct dose-dependent vasorelaxation compared with Healthberry 865 / vasorelaxation reached: single anthocyanins; for direct dose-dependent vasorelaxation compared with Healthberry 865: 1-100 μg/mL; for vasorelaxation reached: dose-response curves 1-100 μg/mL
Procedure: Aorta, carotid, femoral arteries and second-order branches of the mesenteric arterial tree were removed from mice to perform vascular studies. […] First, an analysis of vascular reactivity curves was performed. In particular, vasoconstriction was assessed with 80 mmol/L of KCI or with increasing doses of phenylephrine (from 10^-9 M to 10^-6 M) in control conditions. […] Caution was taken to avoid endothelial damage; functional integrity was reflected by the response to acetylcholine (from 10^-9 M to 10^-6 M).

NADPH oxidase = NADPH oxidase activity, lucigenin-enhanced chemiluminescence assay in mesenteric arteries; format: cell-based, mice; settings: after stimulation with Angiotensin II
Procedure: Vessels were homogenized in a buffer containing protease inhibitors (mmol/L: 20 monobasic potassium phosphate, 1 EGTA, 0.01 aprotinin, 0.01 leupeptin, 0.01 pepstatin, 0.5 phenylmethylsulfonyl fluoride, pH 7.0). Protein content was measured in an aliquot of the homogenate by Bradford method. In some experiments, cells and vessels were pre-incubated with pharmacological inhibitors before measurements. The reaction was started by the addition of NADPH (0.1 mmol/l) and lucigenin (5 μmol/l) to each well. The chemiluminescence was measured using Tecan Infinite Pro M200 multimode microplate at 37° C.
Vessels were pre-treated with single anthocyanins (50 μg/mL) for 1 hours and then stimulated with Angiotensin II for 15 minutes prior to the acquisition. […] Data are expressed as increase of chemiluminescence per minute.

mice mesenteric arteries [2] = assay: Total ROS production by Dihydrorhodamine 123 (DHR123) in mouse vessels; format: cell-based; settings: vessels stimulated with Angiotensin II
Procedure: (§1) Dihydroethidium (DHE, Life Technologies) was used to evaluate production of reactive oxygen species (ROS) in mouse mesenteric arteries, as previously described. Briefly, vessels were incubated with 5 μM of DHE for 20 min and subsequently observed under a fluorescence microscope (Zeiss). Images were acquired by a digital camera system (Olympus Soft Imaging Solutions). […] After treatment, vessels were incubated with Krebs solution containing 5 μM DHR123 for 30 min at 37° C., and then washed two times with PBS prior to fluorescence measurement using a fluorescence microplate reader (TECAN infinite 200 Pro).

mice mesenteric arteries [3] = assay: Total ROS production by dihydroethidium (DHE) in Angiotensin II-stimulated mice mesenteric arteries; format: cell-based; settings: pre-treatment 50 μg/mL for 1 hour, then Angiotensin II for 15 minutes
Procedure: as §1

mice mesenteric arteries [4] = assay: Evaluation of NO production by DAF-FM in mice mesenteric arteries; format: cell-based; settings: single anthocyanins 50 μg/mL
Procedure: Production of NO was assessed as previously described (Carrizzo et al. 2016). […] Mesenteric segments were cut in 5-μm thick sections, observed under a fluorescence microscope, subsequently counterstained with haematoxylin and eosin and observed under a light microscope.
Scale bar, 50 μm. E) Semiquantitative analyses of immunoblots of mice mesenteric arteries treated with HB (100 μg/mL) alone, or HB plus Akt inhibitor or LY294002, columns are the mean±SEM of three independent experiments. Statistical analyses were performed using two-way ANOVA followed Bonferroni post-hoc test. *p<0.05; **p<0.01, ***p<0.001.

Compound: COc1cc(-c2[o+]c3cc(O)cc(O)c3cc2O[C@@H]2O[C@H](CO)[C@@H](O)[C@H](O)[C@H]2O)cc(OC)c1O [MAL3-glu, Malvidin-3-glucoside]
direct dose-dependent vasorelaxation compared with Healthberry 865 (mice mesenteric arteries [1]): none of the single anthocyanins was able to evoke a dose-dependent vasorelaxation comparable
NADPH oxidase (NOX) activity (NADPH oxidase): able to reduce NOX activity; also recorded: most powerful anthocyanins closer to the potent effect of Healthberry 865®
total ROS production (DHR123) (mice mesenteric arteries [2]): a similar effect was reproduced
Angiotensin II-induced ROS formation (DHE) (mice mesenteric arteries [3]): able to reproduce the antioxidant action of Healthberry 865®

NADPH oxidase (NOX) activity (NADPH oxidase): able to reduce NOX activity
Compound: OC[C@H]1O[C@@H](Oc2cc3c(O)cc(O)cc3[o+]c2-c2cc(O)c(O)c(O)c2)[C@H](O)[C@@H](O)[C@@H]1O [DP3-glu, Delphinidin-3-glucoside]
direct dose-dependent vasorelaxation compared with Healthberry 865 (mice mesenteric arteries [1]): none of the single anthocyanins was able to evoke a dose-dependent vasorelaxation comparable
total ROS production (DHR123) (mice mesenteric arteries [2]): a similar effect was reproduced
Angiotensin II-induced ROS formation (DHE) (mice mesenteric arteries [3]): able to reproduce the antioxidant action of Healthberry 865®

Compound: COc1cc(-c2[o+]c3cc(O)cc(O)c3cc2O[C@@H]2O[C@H](CO)[C@H](O)[C@H](O)[C@H]2O)cc(OC)c1O [MAL3-gal, Malvidin-3-galactoside]
direct dose-dependent vasorelaxation compared with Healthberry 865 (mice mesenteric arteries [1]): none of the single anthocyanins was able to evoke a dose-dependent vasorelaxation comparable
NADPH oxidase (NOX) activity (NADPH oxidase): able to reduce NOX activity
total ROS production (DHR123) (mice mesenteric arteries [2]): a similar effect was reproduced
Angiotensin II-induced ROS formation (DHE) (mice mesenteric arteries [3]): able to reproduce the antioxidant action of Healthberry 865®

Compound: OC[C@H]1O[C@@H](Oc2cc3c(O)cc(O)cc3[o+]c2-c2cc(O)c(O)c(O)c2)[C@H](O)[C@@H](O)[C@H]1O [DP3-gal, Delphinidin-3-galactoside]
direct dose-dependent vasorelaxation compared with Healthberry 865 (mice mesenteric arteries [1]): none of the single anthocyanins was able to evoke a dose-dependent vasorelaxation comparable; also recorded: vasorelaxant effects evoked by DP3-gal, C3-rut and DP3-ara were observed
vasorelaxation reached (mice mesenteric arteries [1]): about 32,5%

Compound: COc1cc(-c2[o+]c3cc(O)cc(O)c3cc2O[C@@H]2O[C@H](CO)[C@@H](O)[C@H](O)[C@H]2O)cc(O)c1O [PT3-glu, Petunidin-3-glucoside]
direct dose-dependent vasorelaxation compared with Healthberry 865 (mice mesenteric arteries [1]): none of the single anthocyanins was able to evoke a dose-dependent vasorelaxation comparable

NADPH oxidase (NOX) activity (NADPH oxidase): able to reduce NOX activity
Compound: C[C@@H]1O[C@@H](OC[C@H]2O[C@@H](Oc3cc4c(O)cc(O)cc4[o+]c3-c3ccc(O)c(O)c3)[C@H](O)[C@@H](O)[C@@H]2O)[C@H](O)[C@H](O)[C@H]1O [C3-rut, Cyanidin-3-rutinoside]
direct dose-dependent vasorelaxation compared with Healthberry 865 (mice mesenteric arteries [1]): none of the single anthocyanins was able to evoke a dose-dependent vasorelaxation comparable; also recorded: vasorelaxant effects evoked by DP3-gal, C3-rut and DP3-ara were observed
vasorelaxation reached (mice mesenteric arteries [1]): ~36,5%
total ROS production (DHR123) (mice mesenteric arteries [2]): a similar effect was reproduced
Angiotensin II-induced ROS formation (DHE) (mice mesenteric arteries [3]): able to reproduce the antioxidant action of Healthberry 865®

Compound: OC[C@H]1O[C@@H](Oc2cc3c(O)cc(O)cc3[o+]c2-c2ccc(O)c(O)c2)[C@H](O)[C@@H](O)[C@@H]1O [C3-glu, Cyanidin-3-glucoside]
direct dose-dependent vasorelaxation compared with Healthberry 865 (mice mesenteric arteries [1]): none of the single anthocyanins was able to evoke a dose-dependent vasorelaxation comparable
NADPH oxidase (NOX) activity (NADPH oxidase): able to reduce NOX activity; also recorded: most powerful anthocyanins closer to the potent effect of Healthberry 865®
total ROS production (DHR123) (mice mesenteric arteries [2]): a similar effect was reproduced
Angiotensin II-induced ROS formation (DHE) (mice mesenteric arteries [3]): able to reproduce the antioxidant action of Healthberry 865®

Compound: Oc1cc(O)c2cc(O[C@H]3OC[C@H](O)[C@H](O)[C@H]3O)c(-c3cc(O)c(O)c(O)c3)[o+]c2c1 [DP3-ara, Delphinidin-3-arabinoside]
direct dose-dependent vasorelaxation compared with Healthberry 865 (mice mesenteric arteries [1]): none of the single anthocyanins was able to evoke a dose-dependent vasorelaxation comparable; also recorded: vasorelaxant effects evoked by DP3-gal, C3-rut and DP3-ara were observed

NADPH oxidase (NOX) activity (NADPH oxidase): able to reduce NOX activity
Compound: Peonidin-3-galactoside [PEO3-gal]
direct dose-dependent vasorelaxation compared with Healthberry 865 (mice mesenteric arteries [1]): none of the single anthocyanins was able to evoke a dose-dependent vasorelaxation comparable
total ROS production (DHR123) (mice mesenteric arteries [2]): a similar effect was reproduced
Angiotensin II-induced ROS formation (DHE) (mice mesenteric arteries [3]): able to reproduce the antioxidant action of Healthberry 865®

Compound: OC[C@H]1O[C@@H](Oc2cc3c(O)cc(O)cc3[o+]c2-c2ccc(O)c(O)c2)[C@H](O)[C@@H](O)[C@H]1O [C3-gal, Cyanidin-3-galactoside]
vasorelaxant effect in presence of Akt inhibitor (mice mesenteric arteries [1]; increasing doses, Akt inhibitor): did not inhibit C3-gal vascular action
vasorelaxant effect in presence of PI3K inhibitor LY294002 (mice mesenteric arteries [1]; increasing doses, pre-treatment with LY294002): did not inhibit C3-gal vascular action
vasorelaxant effect in presence of L-NAME (mice mesenteric arteries [1]; increasing doses, pre-treatment with eNOS inhibitor L-NAME): significantly reduced its vasorelaxant properties
vasorelaxant effect in presence of Dorsomorphin (mice mesenteric arteries [1]; increasing doses, selective AMPK inhibitor Dorsomorphin): completely lost its vasorelaxant capability
direct dose-dependent vasorelaxation compared with Healthberry 865 (mice mesenteric arteries [1]): very similar to that induced by Healthberry 865®
nitric oxide production (DAF-FM fluorescence) (mice mesenteric arteries [4]): significant increase of nitric oxide production
